Experimental data reported in patent US20250248403A1, “COMPOSITION FOR REDUCING AMOUNT OF REACTIVE OXYGEN” (KANEKA CORPORATION, priority 2022, published 2025).

Test system: soybeans (Fukuyutaka)
Assay: Electron transfer rate (ETR) by PAM fluorometry after foliar spraying and paraquat application
Assay type: in vivo, soybean
Conditions: 24 h after paraquat
From the text: In FIG. 1 to FIG. 18 related to the examples, the relative value indicated above each bar chart in each drawing means a relative value when T1 in each drawing is 100. When an X % increase (relative to T2) is indicated above each bar chart in each drawing, it means that the value increases by X % relative to the value of T2 in each drawing. When a Y % decrease (relative to T2) is indicated above each bar chart in each drawing, it means that the value decreases by Y % relative to the value of T2 in each drawing.
A 9 cm poly pot was filled with culture soil and seeded with three soybeans (Fukuyutaka).
After seeding, the soybeans were cultivated in an incubator set in a light period (6:00-18:00, temperature 26° C., illuminance 120 μmol/m^2·s) and a dark period (18:00-6:00, temperature 18° C.). After germination, they were thinned to one plant.
After the first true leaf development, in each of the following treatments, foliar spraying of the following liquid (composition for reducing reactive oxygen) was conducted on each plant (application of the composition for reducing reactive oxygen). Twenty-four hours after the foliar spraying, foliar spraying of a paraquat aqueous solution with SILWET L-77 added to make a 1,000-fold dilution was conducted on each plant, except for a Control (T1) (paraquat application).
Electron transfer rate (ETR) was measured by pulse amplitude modulated fluorometry (PAM fluorometry) twenty-four hours after the paraquat application. In addition, twenty-four hours after the paraquat application, a SPAD value was measured using a chlorophyll meter.
After the first true leaf development, in each of the following treatments, foliar spraying of the following liquid (composition for reducing reactive oxygen) was conducted on each plant (application of the composition for reducing reactive oxygen). Twenty-four hours after the foliar spraying, foliar spraying of a paraquat aqueous solution with SILWET L-77 added to make a 1,000-fold dilution was conducted on each plant, except for the Control (T1) (paraquat application).
ETR was measured by the PAM fluorometry twenty-four hours after the paraquat application. In addition, twenty-four hours after the paraquat application, a SPAD value was measured using a chlorophyll meter.
After seeding, the soybeans were cultivated in an incubator set in a light period (6:00-18:00, temperature 26° C., illuminance 120 μmol/m^2·s)

For sophorolipid [SL], the “ETR compared with T2” value (Experimental Example 4, T3: SL diluted 1000 times, PAR 1496) was “slightly increased”.

surfactin Na [SF] was tested, and the “ETR compared with T2” value (Experimental Example 3, T3: SF diluted 10000 times, PAR 1496) was “slightly increased”, the “ETR compared with T2” value (Experimental Example 6, T3: SF diluted 10000 times, PAR 1496) was “slightly increased” and the “ETR compared with T2” value (Experimental Example 9, T3: SF diluted 2000 times, PAR 1455) was “significantly increased”.
